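Tested at 5 concentrations; 48 h exposure; 96-well plates; endpoints linearly interpolated, else capped at highest concentration. The concentration for 50% growth inhibition is given as GI50.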 Active and inactive are the calls of the source. No stated cut-off is given here; in the data, active = GI50 up to about 1.1 µM and inactive = higher.
What was measured:
Experiment in all cases: DTP human tumour cell line panel, 48 h
[1] = test system: 786-0
[2] = test system: A549
[3] = test system: BT-549
[4] = test system: COLO 205
[5] = test system: EKVX
[6] = test system: HL-60
[7] = test system: HOP-62
[8] = test system: IGROV-1
[9] = test system: M14
[10] = test system: MDA-MB-435
[11] = test system: MDA-N
[12] = test system: Malme-3M
[13] = test system: NCI-H226
[14] = test system: NCI-H23
[15] = test system: NCI-H460
[16] = test system: OVCAR-3
[17] = test system: SK-OV-3
[18] = test system: SR
[19] = test system: T47D
[20] = test system: UACC-257

With `CN(Cc1ccccc1)Cn1ccnc1` the GI50 [1] was 72.9 µM (inactive), the GI50 [2] was > 100 µM (inactive) and the GI50 [3] was > 100 µM (inactive). For the same compound, the GI50 [4] was 33.5 µM (inactive), the GI50 [5] was > 85.1 µM (inactive) and the GI50 [6] was > 38.5 µM (inactive). The GI50 [7] was > 100 µM (inactive), the GI50 [8] was 36.2 µM (inactive) and the GI50 [9] was 20.5 µM (inactive). The GI50 [10] was 51.4 µM (inactive), the GI50 [11] was 76 µM (inactive) and the GI50 [12] was 24.9 µM (inactive). The GI50 [13] was > 100 µM (inactive), the GI50 [14] was > 85.5 µM (inactive) and the GI50 [15] was 40.3 µM (inactive). The GI50 [16] was > 100 µM (inactive), the GI50 [17] was > 100 µM (inactive) and the GI50 [18] was 26.2 µM (inactive). The GI50 [19] was > 60.7 µM (inactive) and the GI50 [20] was 22.4 µM (inactive).

For `c1ccc2c(OCC3CO3)ccc(OCC3CO3)c2c1` (stereo not given), the GI50 [1] was 2.11 µM (inactive), the GI50 [2] was 4.32 µM (inactive) and the GI50 [3] was 6.49 µM (inactive). The GI50 [4] was 10.6 µM (inactive), the GI50 [5] was 17.4 µM (inactive) and the GI50 [6] was 0.321 µM (active). The GI50 [7] was 3.03 µM (inactive), the GI50 [8] was 3.44 µM (inactive) and the GI50 [9] was 3.38 µM (inactive). The GI50 [10] was 2.44 µM (inactive), the GI50 [11] was 2.8 µM (inactive) and the GI50 [12] was 7.13 µM (inactive). The GI50 [13] was 12.1 µM (inactive), the GI50 [14] was 2.51 µM (inactive) and the GI50 [15] was 3.42 µM (inactive). For the same compound, the GI50 [16] was 1.38 µM (inactive), the GI50 [17] was 12.6 µM (inactive) and the GI50 [18] was 0.343 µM (active). The GI50 [19] was 1.91 µM (inactive) and the GI50 [20] was 7.14 µM (inactive).

`C=CC1(CBr)CCC(C(C)(C)Br)O1` (stereo not given) was tested, and the GI50 [1] was 1.79 µM (inactive), the GI50 [2] was 17.3 µM (inactive) and the GI50 [3] was 16.7 µM (inactive). For the same compound, the GI50 [4] was 5.43 µM (inactive), the GI50 [5] was 18 µM (inactive) and the GI50 [6] was 0.832 µM (active). For the same compound, the GI50 [7] was 15.9 µM (inactive), the GI50 [8] was 8.13 µM (inactive) and the GI50 [9] was 13.1 µM (inactive). The GI50 [10] was 12.6 µM (inactive), the GI50 [11] was 8.57 µM (inactive) and the GI50 [12] was 13.7 µM (inactive). For the same compound, the GI50 [13] was 21 µM (inactive), the GI50 [14] was 6.98 µM (inactive) and the GI50 [15] was 13 µM (inactive). The GI50 [16] was 9.42 µM (inactive), the GI50 [17] was 14.5 µM (inactive) and the GI50 [18] was 2.52 µM (inactive). For the same compound, the GI50 [19] was 2.28 µM (inactive) and the GI50 [20] was 13.7 µM (inactive).

With `O=C(O)CNC(=O)CO/N=C1/C(=C2/C(=O)Nc3ccccc32)Nc2ccccc21` the GI50 [1] was > 100 µM (inactive), the GI50 [2] was 86.5 µM (inactive) and the GI50 [3] was > 100 µM (inactive). For the same compound, the GI50 [4] was 46.2 µM (inactive), the GI50 [5] was 94.6 µM (inactive) and the GI50 [6] was 57.9 µM (inactive). For the same compound, the GI50 [7] was 27.4 µM (inactive), the GI50 [8] was 72.6 µM (inactive) and the GI50 [9] was > 100 µM (inactive). For the same compound, the GI50 [10] was > 100 µM (inactive), the GI50 [11] was 84.9 µM (inactive) and the GI50 [12] was > 100 µM (inactive). For the same compound, the GI50 [13] was > 100 µM (inactive), the GI50 [14] was > 100 µM (inactive) and the GI50 [15] was > 100 µM (inactive). The GI50 [16] was 42.2 µM (inactive), the GI50 [17] was 20.9 µM (inactive) and the GI50 [18] was 38.5 µM (inactive). The GI50 [19] was 56.9 µM (inactive) and the GI50 [20] was > 100 µM (inactive).

`c1csc(-c2cscc2-c2ccsc2)c1` was tested, and the GI50 [1] was > 63.1 µM (inactive), the GI50 [2] was 47.9 µM (inactive) and the GI50 [3] was > 100 µM (inactive). For the same compound, the GI50 [4] was > 100 µM (inactive), the GI50 [5] was 41.2 µM (inactive) and the GI50 [6] was 30.5 µM (inactive). For the same compound, the GI50 [7] was 42.3 µM (inactive), the GI50 [8] was 68.9 µM (inactive) and the GI50 [9] was 54.1 µM (inactive). For the same compound, the GI50 [10] was 25.5 µM (inactive), the GI50 [11] was 33.3 µM (inactive) and the GI50 [12] was 20.9 µM (inactive). For the same compound, the GI50 [13] was > 43.5 µM (inactive), the GI50 [14] was 35.3 µM (inactive) and the GI50 [15] was 62.2 µM (inactive). The GI50 [16] was 18.4 µM (inactive), the GI50 [17] was 47.4 µM (inactive) and the GI50 [18] was 26.6 µM (inactive). The GI50 [19] was > 55.1 µM (inactive) and the GI50 [20] was > 94.4 µM (inactive).

In the case of `O=C1C(Cl)=C(NCCO)C(=O)c2c(O)ccc(O)c21`, the GI50 [1] is reported as 5.53 µM (inactive), the GI50 [2] is reported as 1.87 µM (inactive) and the GI50 [3] is reported as 4.26 µM (inactive). The GI50 [4] was 1.74 µM (inactive), the GI50 [5] was 6.37 µM (inactive) and the GI50 [6] was 2.6 µM (inactive). The GI50 [7] was 3.28 µM (inactive), the GI50 [8] was 2.49 µM (inactive) and the GI50 [9] was 2.16 µM (inactive). The GI50 [10] was 2.17 µM (inactive), the GI50 [11] was 1.77 µM (inactive) and the GI50 [12] was 1.4 µM (inactive). The GI50 [13] was > 10 µM (inactive), the GI50 [14] was 2.6 µM (inactive) and the GI50 [15] was 1.85 µM (inactive). For the same compound, the GI50 [16] was 2.76 µM (inactive), the GI50 [17] was > 10 µM (inactive) and the GI50 [18] was 2.41 µM (inactive). The GI50 [19] was 4.24 µM (inactive) and the GI50 [20] was 1.33 µM (inactive).

— ChEMBL document CHEMBL1201862, “PubChem BioAssay data set” (2004)
